Experimental data as given in ChEMBL document CHEMBL1201862, “PubChem BioAssay data set” (2004).
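These data come from cells grown in 96-well plates and exposed to compound for 48 hours at five concentrations. At the GI50, growth is halved.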 Active and inactive are the calls of the source. Rule as the data show it: active = GI50 up to about 1.1 µM and inactive = higher.

Assays:
Experiment in all cases: NCI-60 cell line screen, 48 h
EKVX = system: EKVX
NCI/ADR-RES = system: NCI/ADR-RES
BT-549 = system: BT-549
LOX IMVI = system: LOX IMVI
OVCAR-3 = system: OVCAR-3
RPMI-8226 = system: RPMI-8226
U-251 = system: U-251
TK-10 = system: TK-10
SR = system: SR
RXF 393 = system: RXF 393
IGROV-1 = system: IGROV-1
SW-620 = system: SW-620
786-0 = system: 786-0
Hs-578T = system: Hs-578T
MOLT-4 = system: MOLT-4
HOP-92 = system: HOP-92
SF-295 = system: SF-295
SK-MEL-2 = system: SK-MEL-2
SNB-19 = system: SNB-19
COLO 205 = system: COLO 205
UACC-62 = system: UACC-62
MCF7 = system: MCF7
NCI-H460 = system: NCI-H460
OVCAR-5 = system: OVCAR-5
OVCAR-8 = system: OVCAR-8
MDA-N = system: MDA-N
K562 = system: K562
NCI-H226 = system: NCI-H226
ACHN = system: ACHN
KM12 = system: KM12
CCRF-CEM = system: CCRF-CEM
UO-31 = system: UO-31
T47D = system: T47D
PC-3 = system: PC-3
A498 = system: A498
SK-MEL-28 = system: SK-MEL-28
A549 = system: A549
Malme-3M = system: Malme-3M
SK-MEL-5 = system: SK-MEL-5
M14 = system: M14
HCT-15 = system: HCT-15
HT-29 = system: HT-29
SK-OV-3 = system: SK-OV-3
SF-539 = system: SF-539
HCT-116 = system: HCT-116
MDA-MB-231 = system: MDA-MB-231
OVCAR-4 = system: OVCAR-4
DU-145 = system: DU-145
NCI-H23 = system: NCI-H23
HCC 2998 = system: HCC 2998
HOP-62 = system: HOP-62
MDA-MB-435 = system: MDA-MB-435
SNB-75 = system: SNB-75
SF-268 = system: SF-268
SN12C = system: SN12C
UACC-257 = system: UACC-257
HL-60 = system: HL-60
CAKI-1 = system: CAKI-1
NCI-H522 = system: NCI-H522

Measured: GI50

COC(=O)[C@]1(Cc2ccc3ccccc3c2)CCCCCCN1C(=O)c1ccccc1
inactive: EKVX > 27.7 µM | NCI/ADR-RES > 34 µM | BT-549 > 39.5 µM | LOX IMVI 16.7 µM | OVCAR-3 > 24.9 µM | RPMI-8226 4.15 µM | U-251 > 26.7 µM | TK-10 > 36.6 µM | SR > 100 µM | RXF 393 > 32.2 µM | IGROV-1 > 37.8 µM | SW-620 > 40.8 µM | 786-0 > 37 µM | Hs-578T 18.7 µM | MOLT-4 > 21.3 µM | HOP-92 > 38.5 µM | SF-295 > 23.4 µM | SK-MEL-2 12.6 µM | SNB-19 > 44.6 µM | COLO 205 11.4 µM | UACC-62 > 35.6 µM | MCF7 > 32.2 µM | NCI-H460 > 34.4 µM | OVCAR-5 > 38 µM | OVCAR-8 > 33.3 µM | MDA-N > 38 µM | K562 > 22 µM | NCI-H226 > 37.9 µM | ACHN > 34.4 µM | KM12 > 34.1 µM | CCRF-CEM > 23.9 µM | UO-31 > 21 µM | T47D > 30.3 µM | PC-3 > 22.4 µM | A498 > 36.1 µM | SK-MEL-28 > 37.2 µM | A549 > 100 µM | Malme-3M > 38.5 µM | SK-MEL-5 > 100 µM | M14 > 36.1 µM | HT-29 > 28.2 µM | SK-OV-3 > 49.1 µM | SF-539 > 39.6 µM | HCT-116 > 25.4 µM | MDA-MB-231 > 36.4 µM | OVCAR-4 12.7 µM | DU-145 > 43.6 µM | NCI-H23 > 29.3 µM | HCC 2998 > 34 µM | HOP-62 > 30.1 µM | MDA-MB-435 > 37.2 µM | SNB-75 17.5 µM | SF-268 > 33.8 µM | SN12C > 37 µM | UACC-257 12.5 µM
> 31.8 µM: HCT-15

Nc1ccn([C@H]2CO[C@@H](CO)O2)c(=O)n1
active: LOX IMVI 0.804 µM | MOLT-4 0.28 µM | HL-60 0.252 µM | ACHN 0.106 µM | CAKI-1 0.222 µM | CCRF-CEM 0.238 µM | M14 0.83 µM | DU-145 0.0658 µM
5.4 µM: HCT-15
inactive: EKVX > 55.8 µM | NCI/ADR-RES 3.88 µM | BT-549 32.7 µM | OVCAR-3 > 71.6 µM | RPMI-8226 > 94 µM | U-251 10.5 µM | TK-10 > 100 µM | SR 1.49 µM | RXF 393 1.83 µM | IGROV-1 74 µM | SW-620 > 56.6 µM | 786-0 2.87 µM | Hs-578T > 100 µM | HOP-92 1.82 µM | SF-295 1.2 µM | SK-MEL-2 > 100 µM | SNB-19 4.26 µM | COLO 205 83 µM | UACC-62 2.37 µM | MCF7 1.48 µM | NCI-H460 1.58 µM | OVCAR-5 27.9 µM | OVCAR-8 1.51 µM | MDA-N 17.4 µM | K562 26.1 µM | NCI-H226 39.4 µM | KM12 > 100 µM | UO-31 1.57 µM | T47D > 35.6 µM | PC-3 1.39 µM | SK-MEL-28 15.7 µM | NCI-H522 7.03 µM | A549 1.35 µM | Malme-3M 62.2 µM | SK-MEL-5 18.9 µM | HT-29 15 µM | SK-OV-3 3.77 µM | SF-539 4.46 µM | HCT-116 1.39 µM | MDA-MB-231 > 55.7 µM | OVCAR-4 > 100 µM | NCI-H23 15.1 µM | HCC 2998 33.7 µM | HOP-62 1.67 µM | MDA-MB-435 20.8 µM | SNB-75 > 100 µM | SF-268 11.4 µM | SN12C 1.95 µM | UACC-257 97.7 µM
